Source: paper PMC4583449, “Characterisation of (R)-2-(2-Fluorobiphenyl-4-yl)-N-(3-Methylpyridin-2-yl)Propanamide as a Dual Fatty Acid Amide Hydrolase: Cyclooxygenase Inhibitor” (PLoS ONE, 2015)
Values joined by “and” are separate entries in the source; they are usually repeats but may differ in a detail not shown here. Identical values can stand only once.

Columns and labels:
RAW 264.7 cells [1] = experiment: [3H]AEA hydrolysis by intact RAW 264.7 cells; type: cell-based, mouse; conditions: LPS + INF-γ-treated cells; 100 nM [3H]AEA, 60 min; URB597 1 μM, flurbiprofen and (R)-Flu-AM1 10 μM
RAW 264.7 cells [2] = experiment: Lipid profile (prostaglandins, 2-AG, AEA and related lipids) of RAW 264.7 cell extracts, UPLC-MS/MS; type: cell-based, mouse; conditions: 30 min
ovine COX-1 = target: T1, ovine COX-1 (Ovis aries, UniProt P05979); experiment: COX-1 inhibition, oxygraphic method (oxygen electrode); type: biochemical; conditions: 10 μM arachidonic acid; no preincubation phase; approximate, from initial velocities
T1 construct: purchased Cayman Chemical Co. 60100
T1 sequence (P05979 25-600): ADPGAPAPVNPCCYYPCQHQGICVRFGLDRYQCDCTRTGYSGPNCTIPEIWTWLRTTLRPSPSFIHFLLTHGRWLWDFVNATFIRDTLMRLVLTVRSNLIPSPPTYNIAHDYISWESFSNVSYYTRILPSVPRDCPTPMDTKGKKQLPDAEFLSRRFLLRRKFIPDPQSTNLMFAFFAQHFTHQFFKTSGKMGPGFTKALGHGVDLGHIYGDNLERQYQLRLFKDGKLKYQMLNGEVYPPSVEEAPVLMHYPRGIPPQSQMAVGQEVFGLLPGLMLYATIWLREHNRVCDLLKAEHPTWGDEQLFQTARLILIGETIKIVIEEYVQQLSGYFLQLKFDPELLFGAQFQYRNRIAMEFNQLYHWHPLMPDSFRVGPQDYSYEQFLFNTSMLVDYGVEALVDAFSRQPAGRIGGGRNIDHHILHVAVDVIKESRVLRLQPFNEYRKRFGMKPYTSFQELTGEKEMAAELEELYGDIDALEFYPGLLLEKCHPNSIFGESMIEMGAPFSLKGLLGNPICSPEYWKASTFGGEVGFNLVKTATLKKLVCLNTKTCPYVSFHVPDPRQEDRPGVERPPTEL
Method: The assay was performed according to Meade et al. with minor modifications. An oxygen electrode chamber with integral stirring (Oxygraph System, Hansatech Instruments, King´s Lynn, U.K.) was calibrated daily to ambient temperature and air pressure. The assay buffer contained 0.1 M Tris-HCl buffer pH 7.4, 1 μM haematin, 2 mM phenol, 5 mM EDTA, 10 μM substrate (arachidonic acid or 2-AG) (final assay volume was 2 ml). After addition of (R)- or (S)-Flu-AM1 dissolved in ethanol (final assay concentration 1%), a baseline was established for 5 min before initiation of reaction by addition of 200 units ovine COX-1 or human recombinant COX-2. The change in oxygen consumption as a measurement of enzyme activity was monitored for approximately 5 min.

rat brain FAAH = target: T2, rat brain FAAH (Rattus norvegicus, UniProt P97612); experiment: [3H]AEA hydrolysis in rat brain homogenates; type: biochemical; conditions: current authors, unpublished data; read-out: IC50 inhibition of [3H]AEA hydrolysis in rat brain homogenates
T2 construct: the racemate was studied in rat brain homogenates, whereas mouse brain homogenates were used here; from tissue; host or cells: rat brain homogenates
T2 sequence (P97612 1-579): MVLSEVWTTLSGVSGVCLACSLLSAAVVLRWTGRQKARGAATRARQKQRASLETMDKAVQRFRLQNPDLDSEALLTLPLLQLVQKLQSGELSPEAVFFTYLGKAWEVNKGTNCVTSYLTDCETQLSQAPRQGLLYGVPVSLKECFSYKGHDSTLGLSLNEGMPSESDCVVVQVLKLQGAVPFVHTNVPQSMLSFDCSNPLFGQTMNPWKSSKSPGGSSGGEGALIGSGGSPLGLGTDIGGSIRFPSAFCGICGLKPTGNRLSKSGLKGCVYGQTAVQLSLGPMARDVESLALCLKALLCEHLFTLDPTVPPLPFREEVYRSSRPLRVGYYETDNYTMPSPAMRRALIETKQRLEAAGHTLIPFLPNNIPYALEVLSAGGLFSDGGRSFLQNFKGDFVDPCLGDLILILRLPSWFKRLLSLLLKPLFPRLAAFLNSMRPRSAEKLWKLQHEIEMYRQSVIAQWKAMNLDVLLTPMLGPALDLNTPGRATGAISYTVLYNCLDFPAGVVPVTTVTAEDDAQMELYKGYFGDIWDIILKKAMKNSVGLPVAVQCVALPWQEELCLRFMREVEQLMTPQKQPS

[3] = LPS + IFNγ 24 h, URB597 1 μM, flurbiprofen 10 μM, (R)-Flu-AM1 10 μM, median (range), n = 5–6
[4] = Treatment None (unstimulated), URB597 1 μM, flurbiprofen 10 μM, (R)-Flu-AM1 10 μM, median (range), n = 5–6

With Cc1cccnc1NC(=O)[C@H](C)c1ccc(-c2ccccc2)c(F)c1 [(R)-Flu-AM1, (R)-2-(2-Fluorobiphenyl-4-yl)-N-(3-Methylpyridin-2-yl)Propanamide] the “Effect on hydrolysis of exogenous [3H]AEA by intact cells” value (RAW 264.7 cells [1]) was “would not be expected, and this was found to be the case”, the “Effect on basal and LPS + INF-γ-stimulated PGD2 and PGE2 production” value (RAW 264.7 cells [2]; 10 μM) was “almost complete inhibition” and the “Effect upon linoleic acid-derived oxylipins” value (RAW 264.7 cells [2]; 10 μM) was “No significant effects”. For the same molecule, the “Effect on levels of 2-AG in the cell extracts” value (RAW 264.7 cells [2]; 10 μM, unstimulated and LPS + INF-γ-treated) was “not affected”, the “2-AG level relative to vehicle None median” value (RAW 264.7 cells [2]; [3]) was 0.81 (0.64–0.98) and the “9,10,13-TriHOME level relative to vehicle None median” value (RAW 264.7 cells [2]; [3]) was 1.18 (0.90–1.49). For the same molecule, the “9,10-DiHOME level relative to vehicle None median” value (RAW 264.7 cells [2]; [3]) was 0.82 (0.65–1.09), the “9,12,13-TriHOME level relative to vehicle None median” value (RAW 264.7 cells [2]; [3]) was 1.22 (0.79–1.60) and the “9-HODE level relative to vehicle None median” value (RAW 264.7 cells [2]; [3]) was 1.06 (0.50–1.64). For the same molecule, the “11-HETE level relative to vehicle None median” value (RAW 264.7 cells [2]; [3]) was 2.29 (0.92–7.87), the “12(13)-EpOME level relative to vehicle None median” value (RAW 264.7 cells [2]; [3]) was 1.02 (0.53–1.98) and the “12(S)-HEPE level relative to vehicle None median” value (RAW 264.7 cells [2]; [3]) was 0.27 (0–0.74). The “12,13-DiHOME level relative to vehicle None median” value (RAW 264.7 cells [2]; [3]) was 0.93 (0.76–1.04), the “12-HETE level relative to vehicle None median” value (RAW 264.7 cells [2]; [3]) was 0.32 (0.10–1.05) and the “13-HODE level relative to vehicle None median” value (RAW 264.7 cells [2]; [3]) was 1.21 (0.55–1.75). The “13-oxo-ODE level relative to vehicle None median” value (RAW 264.7 cells [2]; [3]) was 1.49 (0.31–2.85), the “15-HETE level relative to vehicle None median” value (RAW 264.7 cells [2]; [3]) was 1.33 (0.67–3.37) and the “AEA level relative to vehicle None median” value (RAW 264.7 cells [2]; [3]) was 1.01 (0.37–1.16). The “LEA level relative to vehicle None median” value (RAW 264.7 cells [2]; [3]) was 1.13 (0.33–1.60), the “OEA level relative to vehicle None median” value (RAW 264.7 cells [2]; [3]) was 1.03 (0.87–1.22) and the “PEA level relative to vehicle None median” value (RAW 264.7 cells [2]; [3]) was 0.91 (0.49–1.15). The “PGD2 level relative to vehicle None median” value (RAW 264.7 cells [2]; [3]) was 3.14 (1.51–4.13), the “SEA level relative to vehicle None median” value (RAW 264.7 cells [2]; [3]) was 0.86 (0.65–1.11) and the “Effect on levels of AEA and related N-acylethanolamines in the cells” value (RAW 264.7 cells [2]; LPS + INF-γ-treated, ionomycin (5 μM) treated cells, URB597 1 μM, flurbiprofen and (R)-Flu-AM1 10 μM) was “did not affect”. The “2-AG level relative to vehicle None median” value (RAW 264.7 cells [2]; [4]) was 0.94 (0.62–1.52), the “9,10,13-TriHOME level relative to vehicle None median” value (RAW 264.7 cells [2]; [4]) was 1.04 (0.81–1.41) and the “9,10-DiHOME level relative to vehicle None median” value (RAW 264.7 cells [2]; [4]) was 1.05 (0.64–1.66). For the same molecule, the “9,12,13-TriHOME level relative to vehicle None median” value (RAW 264.7 cells [2]; [4]) was 1.08 (0.76–1.57), the “9-HODE level relative to vehicle None median” value (RAW 264.7 cells [2]; [4]) was 0.99 (0.66–2.11) and the “11-HETE level relative to vehicle None median” value (RAW 264.7 cells [2]; [4]) was 0.55 (0.12–2.43). The “12(13)-EpOME level relative to vehicle None median” value (RAW 264.7 cells [2]; [4]) was 1.03 (0.51–5.45), the “12(S)-HEPE level relative to vehicle None median” value (RAW 264.7 cells [2]; [4]) was 0.90 (0.17–1.43) and the “12,13-DiHOME level relative to vehicle None median” value (RAW 264.7 cells [2]; [4]) was 1.12 (0.73–1.53). The “12-HETE level relative to vehicle None median” value (RAW 264.7 cells [2]; [4]) was 0.94 (0.27–1.82), the “13-HODE level relative to vehicle None median” value (RAW 264.7 cells [2]; [4]) was 0.97 (0.71–2.66) and the “13-oxo-ODE level relative to vehicle None median” value (RAW 264.7 cells [2]; [4]) was 1.97(0.59–3.00). The “15-HETE level relative to vehicle None median” value (RAW 264.7 cells [2]; [4]) was 1.37 (0–2.72), the “AEA level relative to vehicle None median” value (RAW 264.7 cells [2]; [4]) was 0.65 (0.39–0.86) and the “LEA level relative to vehicle None median” value (RAW 264.7 cells [2]; [4]) was 1.07 (0.21–1.26). For the same molecule, the “OEA level relative to vehicle None median” value (RAW 264.7 cells [2]; [4]) was 1.01 (0.79–1.11), the “PEA level relative to vehicle None median” value (RAW 264.7 cells [2]; [4]) was 0.89 (0.74–1.06) and the “PGD2 level relative to vehicle None median” value (RAW 264.7 cells [2]; [4]) was 0 (0–0.25). For the same molecule, the “PGE2 level relative to vehicle None median” value (RAW 264.7 cells [2]; [4]) was 0 (0–0.25), the “SEA level relative to vehicle None median” value (RAW 264.7 cells [2]; [4]) was 0.90 (0.52–1.02) and the IC50 (ovine COX-1) was 6 µM and ~6 µM. For the same molecule, the IC50 (rat brain FAAH) was 0.74 µM.
